Reference: patent US9302999B2, “Substituted triazoles as herbicides” (E. I. DU PONT DE NEMOURS AND COMPANY, priority 2012, dated 2016)

Tests used:
Assay type in all cases: in vivo
[1] = test system: goosegrass (Eleusine indica); test: Test F pre-/postemergence: goosegrass; settings: Preemergence
Source text: (§1) Seeds of plant species selected from corn (Zea mays), soybean (Glycine max), velvetleaf (Abutilon theophrasti), lambsquarters (Chenopodium album), poinsettia, wild (wild poinsettia, Euphorbia heterophylla), pigweed, palmer (palmer pigweed, Amaranthus palmeri), waterhemp (common waterhemp, Amaranthus rudis), surinam grass (Brachiaria decumbens), crabgrass, Brazil (Brazilian crabgrass, Digitaria horizontalis), panicum, fall (fall panicum Panicum dichotomiflorum), crabgrass, large (large crabgrass, Digitaria sanguinalis), foxtail, giant (giant foxtail, Setaria faberii), foxtail, green (green foxtail Setaria viridis), goosegrass (Eleusine indica), ragweed (common ragweed, Ambrosia elatior), barnyardgrass (Echinochloa crus-galli), sandbur (southern sandbur, Cenchrus echinatus), arrowleaf sida (Sida rhombifolia), ryegrass, Italian (Italian ryegrass, Lolium multiflorum), dayflower, VA (Virginia (VA) dayflower, Commelina virginica), field bindweed (Convolvulus arvensis), cocklebur (common cocklebur, Xanthium strumarium), morningglory (Ipomoea coccinea), nightshade (eastern black nightshade, Solanum ptycanthum), kochia (Kochia scoparia), nutsedge, yellow (yellow nutsedge, Cyperus esculentus), johnsongrass (Sorghum halepense), smartweed (ladysthumb smartweed, Polygonum persicaria), and beggarticks (hairy beggarticks, Bidens pilosa), were planted into a silt loam soil and treated preemergence with test chemicals formulated in a non-phytotoxic solvent mixture which included a surfactant. At the same time, plants selected from these crop and weed species and also pigweed (Amaranthus retroflexus), waterhemp_RES1 (ALS/Triazine resistant common waterhemp, Amaranthus rudis) and waterhemp_RES2 (ALS/HPPD resistant common waterhemp, Amaranthus rudis) were planted in pots containing a planting medium comprising spaghnum peat moss, vermiculite, wetting agent and starter nutrients treated with postemergence applications of some of the test chemicals formulated in the same manner. Plants ranged in height from 2 to 18 cm for postemergence treatments (1- to 4-leaf stage).
(§2) Treated plants and controls were maintained in a greenhouse for 14 to 21 days, after which time all species were compared to controls and visually evaluated. Plant response ratings, summarized in Table E, are based on a scale of 0 to 100 where 0 is no effect and 100 is complete control. A dash (-) response means no test result.

[2] = test system: arrowleaf sida (Sida rhombifolia); test: Test F pre-/postemergence: arrowleaf sida
Source text: as §1, §2

kochia (Kochia scoparia) = test: Test F pre-/postemergence: kochia; settings: Preemergence
Source text: as §1, §2

[3] = 16 g ai/ha, scale 0 to 100, 0 no effect, 100 complete control
[4] = 31 g ai/ha, scale 0 to 100, 0 no effect, 100 complete control
[5] = Preemergence, 16 g ai/ha, scale 0 to 100, 0 no effect, 100 complete control
[6] = Preemergence, 31 g ai/ha, scale 0 to 100, 0 no effect, 100 complete control
[7] = Preemergence, 62 g ai/ha, scale 0 to 100
[8] = Preemergence, 125 g ai/ha, scale 0 to 100
[9] = Preemergence, 250 g ai/ha, scale 0 to 100
[10] = Postemergence, 16 g ai/ha, scale 0 to 100
[11] = Postemergence, 31 g ai/ha, scale 0 to 100
[12] = Postemergence, 62 g ai/ha, scale 0 to 100
[13] = Postemergence, 125 g ai/ha, scale 0 to 100

Row | Compound | Plant response rating, Goosegrass [1, 3] | Plant response rating, Goosegrass [1, 4] | Plant response rating, Goosegrass ([1]; 62 g ai/ha, scale 0 to 100) | Plant response rating, Goosegrass ([1]; 125 g ai/ha, scale 0 to 100) | Plant response rating, Goosegrass ([1]; 250 g ai/ha, scale 0 to 100) | Plant response rating, Arrowleaf Sida [2, 5] | Plant response rating, Arrowleaf Sida [2, 6] | Plant response rating, Arrowleaf Sida [2, 7] | Plant response rating, Arrowleaf Sida [2, 8] | Plant response rating, Arrowleaf Sida [2, 9] | Plant response rating, Kochia (kochia (Kochia scoparia); [3]) | Plant response rating, Kochia (kochia (Kochia scoparia); [4]) | Plant response rating, Kochia (kochia (Kochia scoparia); 62 g ai/ha, scale 0 to 100) | Plant response rating, Kochia (kochia (Kochia scoparia); 125 g ai/ha, scale 0 to 100) | Plant response rating, Kochia (kochia (Kochia scoparia); 250 g ai/ha, scale 0 to 100) | Plant response rating, Arrowleaf Sida [2, 10] | Plant response rating, Arrowleaf Sida [2, 11] | Plant response rating, Arrowleaf Sida [2, 12] | Plant response rating, Arrowleaf Sida [2, 13] | further results
1 | COc1nn(-c2cccc(F)c2)nc1Cc1ccnc(C(F)(F)F)c1 [Compound 139] | 5 | 70 | 80 | 98 | 100 | 0 | 0 | 0 | 0 | 0 | 0 | 0 | 35 | 90 | 98 | – | – | – | – | –
2 | Cc1nn(-c2ccnc(Cl)c2)nc1Cc1ccnc(C(F)(F)F)c1 [Compound 141] | – | – | – | – | – | – | – | – | – | – | – | – | – | – | – | 50 | 60 | 70 | 75 | Plant response rating, Arrowleaf Sida ([2]; Postemergence, 8 g ai/ha, scale 0 to 100): 40
3 | Cc1nn(-c2ccc(F)cc2F)nc1Oc1ccnc(C(F)(F)F)c1 [Compound 146] | 0 | 40 | 70 | 75 | 98 | 0 | 0 | 0 | 0 | 10 | 0 | 5 | 30 | 50 | 98 | – | – | – | – | –
4 | CCc1nn(-c2ccc(F)cc2)nc1Cc1ccnc(C(F)(F)F)c1 [Compound 154] | 10 | 95 | 95 | 100 | 100 | 0 | 0 | 0 | 0 | 0 | 5 | 25 | 85 | 95 | 98 | – | – | – | – | –
5 | CCc1nn(-c2ccc(C(F)(F)F)cc2)nc1Oc1ccnc(C(F)(F)F)c1 [Compound 169] | 50 | 95 | 100 | 100 | 100 | 0 | 0 | 0 | 5 | 5 | 0 | 95 | 95 | 98 | 98 | 20 | 20 | 20 | 30 | Plant response rating, Arrowleaf Sida ([2]; Postemergence, 250 g ai/ha, scale 0 to 100): 50
6 | CCc1nn(-c2ccc(F)c(F)c2)nc1Oc1ccnc(C(F)(F)F)c1 [Compound 171] | 70 | 80 | 100 | 100 | 100 | 0 | 0 | 15 | 30 | 60 | 0 | 0 | 5 | 15 | 98 | – | – | – | – | –
